{"source": "patent EP4729529A1", "about": "“PREPARATION OF PEPTIDE INHIBITOR OF INTERLEUKIN-23 RECEPTOR AND USE THEREOF” (Xizang Haisco Pharmaceutical Co., Ltd., priority 2023, dated 2024)", "key": {"[1]": {"experiment": "Test of stability in plasma, dog", "format": "in vitro ADME", "settings": "read-out: Residual rate% at 37°C for 6 h", "method": "(§1) 5. Test of stability in plasma\n(§2) In this experiment, plasmas of five species, including human, monkey, dog, rat, and mouse, were used to evaluate the stability in plasma of Compound 7.\n(§3) A plasma sample was prepared at a concentration level of 1000 ng/mL, and dispensed into EP tubes at time points 0 h and 6 h. Acetonitrile solution containing an internal standard was added directly to the 0 h sample; and the 6 h sample was placed at 37°C for the corresponding time, and then added with an acetonitrile solution containing internal standard. The concentration of the test compound in the sample was measured by the LC-MS/MS method, and the residual rate was calculated from the ratio of the peak areas of the test compound to the internal standard in the time point sample and the 0 h sample.\n(§4) Experimental results: At the concentration level of 1000 ng/mL under the test conditions, the residual rates of the test Compounds were shown in Table 6 below. Table 6. Residual rate% at 37°C for 6 h"}, "[2]": {"experiment": "Test of stability in plasma, monkey", "format": "in vitro ADME", "settings": "read-out: Residual rate% at 37°C for 6 h", "method": "as §1, §2, §3, §4"}, "IL-23R": {"molecular_target": "T1, IL-23R (Homo sapiens, UniProt Q5VWK5)", "T1 construct": "host or cells: HEK-blue IL23 reporter gene cell line", "T1 sequence (Q5VWK5 24-629)": "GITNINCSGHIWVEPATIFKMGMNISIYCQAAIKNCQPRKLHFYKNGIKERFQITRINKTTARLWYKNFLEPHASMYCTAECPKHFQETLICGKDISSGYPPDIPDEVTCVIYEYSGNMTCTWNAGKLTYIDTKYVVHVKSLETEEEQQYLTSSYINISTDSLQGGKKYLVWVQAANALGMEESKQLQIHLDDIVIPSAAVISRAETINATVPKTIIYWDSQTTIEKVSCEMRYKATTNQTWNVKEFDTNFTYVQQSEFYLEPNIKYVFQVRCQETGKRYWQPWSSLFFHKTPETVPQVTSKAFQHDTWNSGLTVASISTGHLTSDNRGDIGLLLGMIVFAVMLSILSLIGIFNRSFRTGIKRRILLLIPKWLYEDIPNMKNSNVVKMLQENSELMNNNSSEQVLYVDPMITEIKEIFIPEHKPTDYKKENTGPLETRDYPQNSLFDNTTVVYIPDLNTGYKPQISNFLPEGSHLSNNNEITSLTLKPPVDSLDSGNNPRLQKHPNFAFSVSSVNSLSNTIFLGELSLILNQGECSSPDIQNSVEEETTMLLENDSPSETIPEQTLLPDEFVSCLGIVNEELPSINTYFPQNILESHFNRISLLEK", "experiment": "IL-23R reporter gene assay (HEK-blue IL23 reporter gene cell line, rhIL23 stimulation)", "format": "cell-based", "settings": "Inhibition of IL-23R, rhIL23 1 ng/mL, 24 hours", "method": "2. IL-23R reporter gene assay\nThe purpose of this assay was to assess the ability of compounds to inhibit the binding of IL23p19 to IL23R in a reporter gene system. The HEK-blue IL23 reporter gene cell line (Invivogen, hkb-il23) was cultured in DMEM + 10% FBS + 100 ug/mL Normocin medium. When the cell density reached 80%-90%, 5000 cells/well were plated into a 384-well plate, and the plate was incubated overnight at 37°C with 5% CO2. Then, the compound stock solution was diluted in DMSO, and 40 nL of the dilution was transferred into the 384-well culture plate by Echo. The plate was incubated at 37°C with 5% CO2 for 0.5 hours. 40 nL/well of rhIL23 (R&D, 1290-IL) was added to the 384-well cell culture plate at a final concentration of 1 ng/mL, and the plate was incubated at 37°C with 5% CO2 for 24 hours. 18 µL of Quanti-Blue™ solution was added to a new 384-well plate. 2 µL/well of cell culture supernatant was transferred into the 384-well plate prepared in Step 6, and the plate was incubated at 37°C with 5% CO2 for 1 hour. Absorbance values at […] were read on BMG. The binding ability of the compounds was assessed using the following formula, and IC50 values were obtained by fitting with Graphpad.\n(§5) Calculation formula of inhibition rate: [formula] • where Data negative: mean of DMSO control group; and • Data positive: mean of non-IL23-stimulated group\nThe calculation formula of IC50 was as follows: Y = Bottom + (Top−Bottom)/(1+10^(∧)((LogIC50−X)*HillSlope)) [formula] • where X: concentration of compound; and • Y: inhibition rate of compound Table 2. Inhibition of IL-23R by test compounds"}, "[3]": {"experiment": "Test of stability in plasma, rat", "format": "in vitro ADME", "settings": "read-out: Residual rate% at 37°C for 6 h", "method": "as §1, §2, §3, §4"}, "[4]": {"experiment": "Test of stability in plasma, human", "format": "in vitro ADME", "settings": "read-out: Residual rate% at 37°C for 6 h", "method": "as §1, §2, §3, §4"}, "[5]": {"molecular_target": "(Homo sapiens, UniProt Q5VWK5)", "sequence (Q9NPF7 20-189 partner, other chains not shown)": "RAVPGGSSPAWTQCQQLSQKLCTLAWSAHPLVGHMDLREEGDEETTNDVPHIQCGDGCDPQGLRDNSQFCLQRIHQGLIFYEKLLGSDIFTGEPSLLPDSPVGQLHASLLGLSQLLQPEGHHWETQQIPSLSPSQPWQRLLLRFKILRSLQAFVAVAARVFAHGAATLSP", "sequence (P29460 23-328 partner, other chains not shown)": "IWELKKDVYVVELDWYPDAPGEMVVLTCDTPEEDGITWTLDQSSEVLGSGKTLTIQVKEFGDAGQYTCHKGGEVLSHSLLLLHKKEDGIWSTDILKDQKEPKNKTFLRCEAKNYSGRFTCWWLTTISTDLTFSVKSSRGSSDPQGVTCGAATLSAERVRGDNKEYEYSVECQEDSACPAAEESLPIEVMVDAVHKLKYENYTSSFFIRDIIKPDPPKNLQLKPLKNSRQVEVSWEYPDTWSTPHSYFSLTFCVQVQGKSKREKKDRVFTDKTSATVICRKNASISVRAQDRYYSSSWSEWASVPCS", "experiment": "IL-23-stimulated pSTAT3 detection assay in PBMCs (ELISA)", "format": "cell-based", "settings": "rhIL23 stimulation 30 minutes, read-out: pSTAT3 inhibition/IC50", "method": "3. IL-23-stimulated pSTAT3 detection assay in PBMCs\nCryopreserved human PBMCs were thawed, and seeded onto a plate previously covered with an anti-CD3 antibody at 1 × 10^6 cells/well. Then, an anti-CD28 antibody was added to the plate, and the cells were incubated at 37°C with 5% CO2 for 5 days. On Day 5, the cells were seeded onto a 96-well plate at a density of 100K cells/well after 4 hours of stimulation by FBS starvation. The diluted Compound was transferred into the 96-well cell culture plate, and the plate was incubated at 37°C with 5% CO2 for 1 hour. rhIL23 (R&D, 1290-IL) was added to the cell culture plate, and the plate was incubated at 37°C with 5% CO2 for 30 minutes. The cells in the wells were lysed on ice with a lysis buffer containing 1× PHOSstop solution for 30 minutes, and the plate was centrifuged at 1000 rpm for 1 minute. Then, the supernatant was transferred into a 96-well ELISA plate, and pSTAT3 ELISA assay was performed according to the instructions of the kit (CST, 7300CA). Absorbance values at […] were read on PHERAstar FSX (BMG LRBTECH). The inhibition rate of the compounds was assessed using the following formula, and IC50 values were obtained by fitting with Graphpad.\nas §5\nThe calculation formula of IC50 was as follows: Y = Bottom + (Top−Bottom)/(1+10^(∧)((LogIC50−X)*HillSlope)) [formula] • where X: concentration of compound; and • Y: inhibition rate of compound. Table 3. pSTAT3 inhibition"}}, "note": "Positions of bridges follow the written chain, without caps; N, C: chain ends. Non-standard residues stand in square brackets, D forms with d. Residues, ends and D or L forms follow the SMILES beside them. Phe(4-OC2H4NH2,2,3-(CH2)3) = NCCOc1ccc(C[C@H](N)C(=O)O)c2c1CCC2; Trp(7-Me) = Cc1cccc2c(C[C@H](N)C(=O)O)c[nH]c12; 2Nal = N[C@@H](Cc1ccc2ccccc2c1)C(=O)O; 3Pal = N[C@@H](Cc1cccnc1)C(=O)O; Pen = CC(C)(S)[C@H](N)C(=O)O; Thp = NC1(C(=O)O)CCOCC1; Sar = CNCC(=O)O"}
{"smiles": "CC(=O)NCCCC[C@@H]1NC(=O)[C@H](Cc2c[nH]c3c(C)cccc23)NC(=O)[C@H]([C@@H](C)O)NC(=O)[C@H](Cc2c[nH]cn2)NC(=O)[C@@H](NC(C)=O)C(C)(C)SSC(C)(C)[C@@H](C(=O)N[C@@H](Cc2ccc(OCCN)c3c2CCC3)C(=O)N[C@@H](Cc2ccc3ccccc3c2)C(=O)NC2(C(=O)N[C@@H](CCC(=O)O)C(=O)N[C@@H](CC(N)=O)C(=O)N[C@@H](Cc3cccnc3)C(=O)N(C)CC(N)=O)CCOCC2)NC1=O", "note": "[Compound 7] (Ac-[Pen]HT[Trp(7-Me)]K(Ac)[Pen][Phe(4-OC2H4NH2,2,3-(CH2)3)][2Nal][Thp]EN[3Pal][Sar]-NH2; disulfide 1-6)", "values": [{"measurement": "remaining at 6 h, 1000 ng/mL", "setting": "[1]", "value": "> 99", "unit": "%"}, {"measurement": "remaining at 6 h, 1000 ng/mL", "setting": "[2]", "value": "> 99", "unit": "%"}, {"measurement": "IC50", "setting": "IL-23R", "value": 6.38, "unit": "nM"}, {"measurement": "remaining at 6 h, 1000 ng/mL", "setting": "[3]", "value": 98.3, "unit": "%"}, {"measurement": "remaining at 6 h, 1000 ng/mL", "setting": "[4]", "value": "> 99", "unit": "%"}, {"measurement": "IC50", "setting": "[5]", "value": 1.4, "unit": "pM"}]}
